Experimental data published in patent publication US5736380A, “Maltose-trehalose converting enzyme, and preparation and uses thereof” (Kabushiki Kaisha Hayashibara Seibutsu Kagaku Kenkyujo, priority 1993, dated 1998).
Entries after “also recorded” stand apart in the source; their conditions may differ. Counter-ions that a name gives are not always drawn.

Target: T1, maltose-trehalose converting enzyme derived from Thermus aquaticus (ATCC 33923) (Thermus thermophilus, UniProt O06458)
T1 construct: The culture obtained in Experiment 15 was centrifuged to obtain an about 0.28 kg of wet cells; endogenous in cells; host or cells: Thermus aquaticus (ATCC 33923), enzyme purified from the disrupted wild-type cells
T1 sequence (O06458 1-963): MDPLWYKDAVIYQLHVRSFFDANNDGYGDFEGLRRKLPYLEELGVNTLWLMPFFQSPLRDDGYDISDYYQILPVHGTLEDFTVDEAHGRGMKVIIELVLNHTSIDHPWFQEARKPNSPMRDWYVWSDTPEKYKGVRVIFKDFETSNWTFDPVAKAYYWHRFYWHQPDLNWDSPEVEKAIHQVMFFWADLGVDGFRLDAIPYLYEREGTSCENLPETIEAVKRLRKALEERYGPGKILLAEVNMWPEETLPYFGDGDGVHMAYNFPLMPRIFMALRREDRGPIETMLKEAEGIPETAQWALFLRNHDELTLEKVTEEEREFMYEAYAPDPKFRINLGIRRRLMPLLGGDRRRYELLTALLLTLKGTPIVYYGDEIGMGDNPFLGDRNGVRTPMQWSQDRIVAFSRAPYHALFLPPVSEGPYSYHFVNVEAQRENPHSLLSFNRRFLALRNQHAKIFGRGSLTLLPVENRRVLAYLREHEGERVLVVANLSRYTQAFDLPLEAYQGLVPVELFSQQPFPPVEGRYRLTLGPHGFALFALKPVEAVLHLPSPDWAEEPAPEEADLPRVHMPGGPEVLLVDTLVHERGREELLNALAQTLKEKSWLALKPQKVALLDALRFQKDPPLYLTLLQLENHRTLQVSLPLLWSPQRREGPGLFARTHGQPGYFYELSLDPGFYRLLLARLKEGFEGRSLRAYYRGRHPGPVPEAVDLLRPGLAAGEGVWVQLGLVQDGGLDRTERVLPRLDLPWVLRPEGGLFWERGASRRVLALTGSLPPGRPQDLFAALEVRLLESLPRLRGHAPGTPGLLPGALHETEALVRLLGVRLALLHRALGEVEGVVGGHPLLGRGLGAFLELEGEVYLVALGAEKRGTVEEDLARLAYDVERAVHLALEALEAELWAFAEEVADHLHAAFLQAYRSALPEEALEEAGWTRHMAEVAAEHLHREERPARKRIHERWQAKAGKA
Assay: Inhibition of enzyme activity
Format: biochemical
Settings: one mM Cu^++ or Hg^++, 50 mM Tris-HCl buffer
Experimental: The activity of the present maltose-trehalose converting enzyme is assayed as follows: One ml of an enzyme solution is added to one ml of 20 w/v % maltose as a substrate in 10 mM phosphate buffer (pH 7.0), and the mixture solution is incubated at 25° C., 35° C. or 60° C. for 60 min, followed by the heating the solution at 100° C. for 10 min to suspend the enzymatic reaction. To the resultant reaction mixture is precisely diluted by 11-fold with 50 mM phosphate buffer (pH 7.5), and 0.4 ml of the diluted solution is admixed with 0.1 ml of a trehalase solution having one unit/ml of trehalase. The resultant solution is incubated at 45° C. for 120 min, followed by determining the amount of glucose by the glucose-oxidase method. As a control, by using trehalase and an enzyme solution, which were preheated at 100° C. for 10 min to inactivate the enzyme, the activity of the enzyme solution is assayed similarly as above. With the above assay, the content of trehalose, formed by the present maltose-trehalose converting enzyme, is determined based on the amount of glucose formed, and one unit activity of the enzyme is defined as the amount of enzyme which forms one μmole of trehalose per minute. As regards to the reaction temperature, it is set to 25° C. for the enzyme of a microorganism of the genus Pimelobacter; 35° C. for that of the genus Pseudomonas; and 60° C. for that of the genus Thermus.
Effects of temperature and pH on the activity of the present enzyme were studied in accordance with the method as used for assaying the enzyme activity. […] The thermal stability of the enzyme was determined by incubating it in 50 mM phosphate buffers (pH 7.0) in test tubes at different temperatures for 60 min, cooling the test tubes with cold water, and assaying the residual enzyme activity in each buffer. The pH stability of the enzyme was determined by incubating it in 50 mM phosphate buffers having different pHs at 60° C. for 60 min, adjusting the resultant buffers to pH 7.0, and assaying the residual enzyme activity in each buffer.

[Cu+2] [Cu^++]
Inhibition of activity: inhibited; also recorded: inhibitory

[Hg+2] [Hg^++]
Inhibition of activity: inhibited; also recorded: inhibitory

NC(CO)(CO)CO [Tris-HCl buffer]
Inhibition of activity: inhibited; also recorded: inhibitory
